{"source": "patent US5364842A", "about": "(priority 1993, dated 1994)", "key": {"[1]": {"tested_on": "rat tail-flick latency to heat stimulus", "conditions": "in vivo"}, "[2]": {"biological_target": "N-type or omega HVA neuronal calcium channels; calcium currents in N1E-115 neuroblastoma cells (Mus musculus, UniProt O55017)", "sequence (O55017 whole entry)": "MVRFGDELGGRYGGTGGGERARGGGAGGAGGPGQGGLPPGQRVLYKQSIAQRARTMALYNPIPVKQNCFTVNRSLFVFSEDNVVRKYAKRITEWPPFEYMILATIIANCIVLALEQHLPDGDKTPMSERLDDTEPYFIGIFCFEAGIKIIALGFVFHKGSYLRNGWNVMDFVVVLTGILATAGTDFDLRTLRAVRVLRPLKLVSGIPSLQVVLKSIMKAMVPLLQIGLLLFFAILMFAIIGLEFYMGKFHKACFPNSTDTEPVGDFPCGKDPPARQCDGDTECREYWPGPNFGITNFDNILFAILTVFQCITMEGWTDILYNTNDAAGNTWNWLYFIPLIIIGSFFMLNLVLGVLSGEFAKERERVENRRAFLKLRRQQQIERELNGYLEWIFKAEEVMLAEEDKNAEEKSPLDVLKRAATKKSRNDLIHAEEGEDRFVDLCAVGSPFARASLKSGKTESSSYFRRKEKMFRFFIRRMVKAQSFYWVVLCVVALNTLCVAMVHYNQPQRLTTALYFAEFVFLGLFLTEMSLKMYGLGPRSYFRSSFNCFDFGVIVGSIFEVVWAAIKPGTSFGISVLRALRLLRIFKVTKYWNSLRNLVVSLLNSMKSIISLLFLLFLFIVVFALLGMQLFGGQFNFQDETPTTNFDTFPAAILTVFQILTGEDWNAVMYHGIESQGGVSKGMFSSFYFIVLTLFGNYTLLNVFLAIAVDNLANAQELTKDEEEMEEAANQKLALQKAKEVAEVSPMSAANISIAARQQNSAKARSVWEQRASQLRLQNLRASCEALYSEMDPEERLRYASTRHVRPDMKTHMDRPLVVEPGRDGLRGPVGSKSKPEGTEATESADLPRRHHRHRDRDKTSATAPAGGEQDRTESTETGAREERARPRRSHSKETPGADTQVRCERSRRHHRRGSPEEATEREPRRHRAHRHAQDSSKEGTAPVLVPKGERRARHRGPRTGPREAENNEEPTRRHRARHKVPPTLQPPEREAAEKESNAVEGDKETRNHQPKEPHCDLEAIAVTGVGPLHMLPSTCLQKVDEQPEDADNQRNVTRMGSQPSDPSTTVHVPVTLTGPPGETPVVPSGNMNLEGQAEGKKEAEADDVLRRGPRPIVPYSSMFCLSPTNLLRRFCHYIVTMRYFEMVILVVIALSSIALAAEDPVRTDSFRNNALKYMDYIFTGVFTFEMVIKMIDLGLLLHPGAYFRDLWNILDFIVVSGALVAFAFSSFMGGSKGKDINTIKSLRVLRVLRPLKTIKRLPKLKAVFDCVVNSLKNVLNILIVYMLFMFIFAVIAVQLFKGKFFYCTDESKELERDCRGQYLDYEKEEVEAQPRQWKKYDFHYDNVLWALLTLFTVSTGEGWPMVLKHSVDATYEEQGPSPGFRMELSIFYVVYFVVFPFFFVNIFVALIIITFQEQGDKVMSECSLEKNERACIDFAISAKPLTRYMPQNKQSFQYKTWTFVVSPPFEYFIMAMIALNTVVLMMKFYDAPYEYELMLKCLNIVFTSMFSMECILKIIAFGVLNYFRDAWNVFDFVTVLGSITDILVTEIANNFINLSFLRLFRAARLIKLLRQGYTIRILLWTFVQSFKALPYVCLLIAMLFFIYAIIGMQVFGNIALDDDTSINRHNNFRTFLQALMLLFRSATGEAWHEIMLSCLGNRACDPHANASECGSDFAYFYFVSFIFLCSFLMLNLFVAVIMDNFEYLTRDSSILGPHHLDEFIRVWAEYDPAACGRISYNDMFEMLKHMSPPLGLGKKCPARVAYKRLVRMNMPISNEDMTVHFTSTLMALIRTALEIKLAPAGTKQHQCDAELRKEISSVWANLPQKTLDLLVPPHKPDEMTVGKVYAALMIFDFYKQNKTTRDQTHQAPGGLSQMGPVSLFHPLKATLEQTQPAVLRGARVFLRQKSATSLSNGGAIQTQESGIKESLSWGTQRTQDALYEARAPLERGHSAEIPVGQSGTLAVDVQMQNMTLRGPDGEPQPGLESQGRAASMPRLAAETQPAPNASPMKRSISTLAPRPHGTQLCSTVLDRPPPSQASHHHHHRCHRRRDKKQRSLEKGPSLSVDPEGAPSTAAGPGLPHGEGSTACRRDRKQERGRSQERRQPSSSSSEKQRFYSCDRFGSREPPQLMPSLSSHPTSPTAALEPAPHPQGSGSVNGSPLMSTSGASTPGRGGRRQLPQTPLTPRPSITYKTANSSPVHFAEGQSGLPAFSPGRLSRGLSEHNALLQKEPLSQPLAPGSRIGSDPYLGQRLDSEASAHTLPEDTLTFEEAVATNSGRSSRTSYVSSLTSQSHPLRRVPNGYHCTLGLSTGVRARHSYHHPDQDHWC", "sequence (O08532 25-956 partner limits assumed)": "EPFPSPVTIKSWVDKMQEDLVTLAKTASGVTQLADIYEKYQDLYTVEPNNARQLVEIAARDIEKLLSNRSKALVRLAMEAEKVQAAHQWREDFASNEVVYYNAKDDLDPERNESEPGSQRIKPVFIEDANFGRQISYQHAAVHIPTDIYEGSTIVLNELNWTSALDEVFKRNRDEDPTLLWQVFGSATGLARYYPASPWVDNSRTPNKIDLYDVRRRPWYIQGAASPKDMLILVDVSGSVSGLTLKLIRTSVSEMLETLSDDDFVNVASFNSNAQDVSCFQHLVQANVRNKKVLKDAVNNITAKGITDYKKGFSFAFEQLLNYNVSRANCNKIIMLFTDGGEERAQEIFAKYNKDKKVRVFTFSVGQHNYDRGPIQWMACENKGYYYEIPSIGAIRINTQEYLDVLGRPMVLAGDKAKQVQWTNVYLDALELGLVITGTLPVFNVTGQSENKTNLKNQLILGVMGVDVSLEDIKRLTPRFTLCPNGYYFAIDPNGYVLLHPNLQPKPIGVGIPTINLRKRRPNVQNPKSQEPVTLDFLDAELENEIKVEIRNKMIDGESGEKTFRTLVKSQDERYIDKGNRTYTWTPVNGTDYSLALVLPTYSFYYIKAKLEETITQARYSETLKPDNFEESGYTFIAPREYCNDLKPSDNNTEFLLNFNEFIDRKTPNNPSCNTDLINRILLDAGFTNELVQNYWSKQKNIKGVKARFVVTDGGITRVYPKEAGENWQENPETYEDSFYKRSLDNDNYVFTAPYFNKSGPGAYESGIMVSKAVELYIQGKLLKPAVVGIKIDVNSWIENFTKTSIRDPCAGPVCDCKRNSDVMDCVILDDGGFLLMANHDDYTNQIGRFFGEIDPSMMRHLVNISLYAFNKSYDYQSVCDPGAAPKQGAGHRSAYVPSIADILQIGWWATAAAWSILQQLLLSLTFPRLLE", "sequence (O08532 957-1103 partner limits assumed)": "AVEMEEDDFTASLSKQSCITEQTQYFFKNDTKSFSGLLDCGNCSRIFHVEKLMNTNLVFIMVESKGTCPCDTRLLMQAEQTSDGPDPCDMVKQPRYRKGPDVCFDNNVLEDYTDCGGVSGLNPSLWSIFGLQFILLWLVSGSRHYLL", "type": "cell-based"}, "[3]": {"tested_on": "potassium-stimulated acetylcholine release from striatal slices", "conditions": "1 µM"}, "[4]": {"tested_on": "potassium-stimulated dopamine release from striatal slices", "type": "cell-based, rat", "conditions": "1 µM"}, "[5]": {"tested_on": "voltage-gated calcium currents in IMR-32 cells", "type": "cell-based, human"}}, "note": "Several values for one entry are separate records, joined by “and”; a condition that tells them apart may be missing. Identical values can stand only once.", "data": [{"molecule": "CN1CC[C@]23c4c5ccc(O)c4O[C@H]2[C@@H](O)C=C[C@H]3[C@H]1C5", "note": "[Morphine, morphine]", "values": [{"measurement": "Analgesia (% Effect), mean MPE", "setting": "[1]", "value": 23}, {"measurement": "Latency Percent Effect, mean", "setting": "[1]", "value": "17 and 19 and 18"}, {"measurement": "Latency Percent Effect, mean MPE", "setting": "[1]", "value": 26}]}, {"molecule": "COC(=O)C1=C(C)NC(C)=C(C(=O)OC)C1c1ccccc1[N+](=O)[O-]", "note": "[nifedipine]", "values": [{"measurement": "effect on the measured calcium current", "setting": "[2]", "value": "no effect"}]}, {"molecule": "amiodipine", "values": [{"measurement": "% inhibition of [3H]acetylcholine release", "setting": "[3]", "value": 0}, {"measurement": "% inhibition of [3H]dopamine release", "setting": "[4]", "value": 0}]}, {"molecule": "cadmium", "values": [{"measurement": "effect of addition to the medium on remaining voltage-gated calcium currents", "setting": "[5]", "value": "blockade of all remaining voltage-gated calcium currents"}]}]}
